The assay concerns the target T1, CENP-E (Homo sapiens, UniProt Q02224).
T1 construct: gene CENPE; motor domain
T1 sequence (Q02224 6-329 limits assumed): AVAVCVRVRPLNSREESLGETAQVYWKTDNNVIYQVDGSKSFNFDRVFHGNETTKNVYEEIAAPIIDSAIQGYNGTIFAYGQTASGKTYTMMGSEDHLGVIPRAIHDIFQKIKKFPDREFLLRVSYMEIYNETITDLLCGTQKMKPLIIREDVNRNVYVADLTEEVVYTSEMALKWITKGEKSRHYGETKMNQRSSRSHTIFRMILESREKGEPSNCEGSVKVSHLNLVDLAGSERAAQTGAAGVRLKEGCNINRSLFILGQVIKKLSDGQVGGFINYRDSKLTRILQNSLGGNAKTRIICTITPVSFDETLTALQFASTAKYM
Nature of the assay: ATPase activity assay of the CENP-E motor domain. It is filed as biochemical.

Consider `COc1cccc2nc(C(=O)N(CCN(C)C)C3CS(=O)(=O)c4c3ccc(C(F)(F)F)c4C#N)c(-c3ccc(F)c(C)c3)n12` (single isomer, unassigned; (+)) [Cmpd-A, (+)-N-[7-cyano-1,1-dioxido-6-(trifluoromethyl)-2,3-dihydro-1-benzothiophen-3-yl]-N-[2-(dimethylamino)ethyl]-3-(4-fluoro-3-methylphenyl)-5-methoxyimidazo[1,2-a]pyridine-2-carboxamide], for which the midpoint of inhibition, the IC50, lay at 2.2 nM.

The values are drawn from publication PMC4506520, “Aneuploidy generates proteotoxic stress and DNA damage concurrently with p53-mediated post-mitotic apoptosis in SAC-impaired cells” (Nature Communications, 2015).
